# From PubChem BioAssay (NCI)
# “And” between values parts separate entries of the source, which are not always exact repeats. Equal entries are not always repeated.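 Assay format: 96-well plates, 48-hour exposure. At the GI50, growth is halved. TGI marks complete inhibition of growth.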
# Tests used:
# Assay in all cases: DTP human tumour cell line panel, 48 h
# [1] = tested on: HT29 colon
# [2] = tested on: HCT-116 colon
# [3] = tested on: NCI-H23 lung
# [4] = tested on: SNB-19 CNS
# [5] = tested on: HOP-62 NSCLC
# [6] = tested on: HOP-92 NSCLC
# [7] = tested on: NCI/ADR-RES ovarian
# [8] = tested on: MCF7 breast
# [9] = tested on: NCI-H522 lung
# [10] = tested on: HL-60(TB) leukemia
SMILES,TGI [1],TGI [2],TGI [3],TGI [4],TGI [5],TGI [6],TGI [7],TGI [8],TGI [9],GI50 [1],GI50 [2],GI50 [10],TGI [10],GI50 [3],GI50 [4],GI50 [5],GI50 [6],GI50 [7],GI50 [8],GI50 [9]
OCCN(CO)CO,> 100 µM,> 100 µM,> 100 µM,> 100 µM,> 100 µM,> 100 µM,> 100 µM,> 100 µM,> 100 µM,–,–,–,–,–,–,–,–,–,–,–
COc1ccc(/C=C/C(=O)c2cc3c(N)c(C(=O)Nc4ccc(OC)cc4)sc3nc2C)cc1,> 28.4 µM,17.5 µM,–,> 41.3 µM,> 50 µM,> 50 µM,1.49 µM,> 50 µM,> 26.5 µM,0.404 µM,0.0634 µM,0.323 µM,2.22 µM,0.181 µM,0.746 µM,0.214 µM,0.757 µM,0.185 µM,0.0644 µM,0.178 µM
CSC1=Nc2c(c(C)c(-c3ccccc3)n2COC(CO)CO)C2=NC(=O)CC(C)N12 (configuration not stated),> 100 µM,> 100 µM,> 100 µM,> 100 µM,> 100 µM,> 100 µM,> 100 µM,> 100 µM,> 100 µM,> 100 µM,> 100 µM,–,–,> 100 µM,> 100 µM,98.1 µM,> 100 µM,> 100 µM,> 100 µM,> 100 µM
C[As](C)SC1OCC(O)C(O)C1O (configuration not stated),> 100 µM,1.37 µM,1.76 µM,27.4 µM,9.52 µM,2.07 µM,0.602 µM,1.29 µM,0.211 µM,0.26 µM,0.244 µM,0.0278 µM,0.189 µM,0.281 µM,4.22 µM,2.15 µM,0.283 µM,0.138 µM,0.173 µM,0.0712 µM
CCOC(=O)c1c(CN2CCN(C)CC2)nc2ccc(Cl)cc2c1-c1ccccc1,6.16 µM,19.1 µM,30.1 µM,25.6 µM,25 µM,22.3 µM,14.5 µM,16.6 µM,25.3 µM,2.28 µM,6.51 µM,2.2 µM,6.22 µM,14.5 µM,12.7 µM,11.2 µM,6.64 µM,5.35 µM,4.15 µM,11.7 µM
O=c1cccc(Cl)[nH]1,> 100 µM,> 100 µM,> 100 µM,> 100 µM,> 100 µM,> 100 µM,> 100 µM,> 100 µM,> 100 µM,–,–,–,–,–,–,–,–,–,–,–
CC1(C)N=C(N)N=C(N)N1c1cccc(CCc2ccccc2)c1,18.6 µM,> 100 µM,> 100 µM,> 100 µM,> 100 µM,34.4 µM,> 100 µM,> 43 µM,34.8 µM,0.135 µM,0.208 µM,1.89 µM,28.7 µM,0.551 µM,0.696 µM,1.29 µM,2.65 µM,> 100 µM,0.297 µM,0.429 µM
Nn1c(-c2ccc(Cl)cc2)nc2c(-c3ccc(Cl)cc3)nc3ccc(Cl)cc3c2c1=O,> 100 µM,> 100 µM,> 100 µM,47.7 µM,57.7 µM,31.6 µM,> 100 µM,> 100 µM,> 100 µM,> 100 µM,5.79 µM,2.76 µM,> 100 µM,33 µM,9.06 µM,22.4 µM,13.6 µM,48.3 µM,4.1 µM,20.9 µM
COc1ccc(-c2csc(Nc3cccc(-c4csc(C)n4)c3)n2)cc1,> 50 µM,> 50 µM,10.1 µM,> 50 µM,> 33.8 µM,> 50 µM,4.19 µM,> 50 µM,> 16.4 µM,2.57 µM,1.8 µM,0.138 µM,3.88 µM,0.931 µM,1.04 µM,2.81 µM,24.7 µM,0.534 µM,0.31 µM,1.23 µM
CNC(=O)OCc1nc(SC)n(C)c1COC(=O)NC,605 µM,372 µM,329 µM,743 µM,92.2 µM,376 µM,535 µM,622 µM,246 µM,–,–,–,262 µM,–,–,–,–,–,–,–
Clc1ccc(CN2CCCN(Cc3ccc(Cl)cc3)C2c2cc3ccccc3c3ccccc23)cc1,> 100 µM,> 100 µM,> 100 µM,> 100 µM,> 100 µM,> 100 µM,> 100 µM,> 100 µM,51 µM,–,–,–,–,–,–,–,–,–,–,–
CCn1c(-c2nonc2N)nc2cnc(Oc3cccc(NC(=O)c4ccc(N(C)C)cc4)c3)cc21,> 25 µM,> 25 µM,> 25 µM,> 25 µM,> 25 µM,> 25 µM,> 25 µM,> 25 µM,> 25 µM,> 25 µM,11.3 µM,> 25 µM,> 25 µM,> 25 µM,> 25 µM,> 25 µM,0.00447 µM,> 25 µM,> 25 µM,> 13.8 µM
COc1ccccc1C(=O)N(Cc1ccccc1)c1ccc(Cl)c(C(=O)OC(C)C)c1,> 74 µM,> 100 µM,> 82.8 µM,> 100 µM,85.8 µM,> 45.5 µM,85.6 µM,> 100 µM,18.3 µM,–,–,–,43.6 µM,–,–,–,–,–,–,–
CC(=O)OCC1OC(n2c3c(cc(C#N)c2=S)CCCC3)C(OC(C)=O)C(OC(C)=O)C1OC(C)=O (configuration not stated),83.9 µM and > 100 µM,> 100 µM,> 100 µM,> 100 µM and 54.4 µM,> 100 µM and 51.5 µM,> 100 µM,> 100 µM,> 100 µM,> 100 µM and 98.7 µM,26.7 µM and > 100 µM,> 93.3 µM,48.9 µM and > 100 µM,> 100 µM,–,> 100 µM and 21.5 µM,83.3 µM and 19.9 µM,> 100 µM and 32.4 µM,–,48.4 µM and > 100 µM,–
CCOC1Oc2ccc(C)cc2C(=O)/C1=C\Nc1ccc(S(N)(=O)=O)cc1 (configuration not stated),> 50 µM,14.9 µM,12.4 µM,> 50 µM,35.1 µM,29.6 µM,18.5 µM,> 50 µM,> 50 µM,15.6 µM,6.62 µM,9.48 µM,27.4 µM,2.92 µM,16.1 µM,11 µM,8.9 µM,6.14 µM,15.9 µM,> 50 µM
C=C1C[C@@H]2O[C@H]3[C@H]4[C@@H](CC[C@@](C)(OC(=O)CCC)[C@H]42)[C@@H](C)C(=O)O[C@@]3(C)CC[C@H]1OO,33.6 µM,54.6 µM,30.6 µM,> 100 µM,55.3 µM,26 µM,31.5 µM,38.8 µM,36.5 µM,16.9 µM,24.3 µM,12.2 µM,28.1 µM,16.9 µM,53.8 µM,25.7 µM,13.3 µM,16.9 µM,20.5 µM,18.2 µM
NC1=NCN(C2OC(CO)C(O)C2O)C(=O)N1 (configuration not stated),2000 µM,143 µM,1500 µM,2220 µM,966 µM,1990 µM,2270 µM,328 µM,144 µM,–,–,–,18.4 µM,–,–,–,–,–,–,–
COc1ccc(C2NC(=S)NC3=C2CCOc2c3ccc3ccccc23)cc1 (configuration not stated),> 100 µM,–,> 100 µM,> 100 µM,> 100 µM,> 100 µM,> 100 µM,> 100 µM,> 100 µM,36.6 µM,–,23.4 µM,> 100 µM,> 100 µM,> 100 µM,> 100 µM,77.1 µM,32.6 µM,5.32 µM,46.6 µM
O=C(O)CCCCC1CCSS1 (configuration not stated),> 100 µM,> 100 µM,> 100 µM,> 100 µM,> 100 µM,> 100 µM,> 100 µM,> 100 µM,> 100 µM,–,–,–,> 100 µM,–,–,–,–,–,–,–
CC[C@H]1OC(=O)[C@H](C)[C@@H](O[C@H]2C[C@@](C)(OC)[C@@H](O)[C@H](C)O2)[C@H](C)[C@@H](O[C@@H]2O[C@H](C)C[C@H](N(C)C)[C@H]2O)[C@](C)(OC)C/C(C)=C2/O[C@@]1(C)C=C2C,4.14 µM,4.36 µM,3.63 µM,3.13 µM,4.74 µM,3.82 µM,3.57 µM,3.63 µM,3.63 µM,1.83 µM,1.93 µM,1.86 µM,4.16 µM,1.96 µM,1.7 µM,2.31 µM,1.57 µM,1.77 µM,1.82 µM,1.72 µM
NCCCN=c1ccc2c3c1c(O)c1c(O)ccc(=O)c1c3[nH]n2CCNCCO,11.9 µM and 21.7 µM,9.67 µM and 20.2 µM,5.66 µM and 8.54 µM,6.57 µM and 14.1 µM,11.1 µM and 9.68 µM,10.3 µM and 2.34 µM,25 µM and > 236 µM,21.5 µM and 11.2 µM,4.69 µM and 3.28 µM,3.08 µM,2.06 µM and 1.46 µM,0.665 µM and 0.556 µM,1.7 µM and 9.33 µM,1.06 µM,0.821 µM,0.484 µM,1.84 µM and 0.409 µM,20.1 µM,0.796 µM,0.55 µM
COc1cc(-c2nn(-c3cccc(NC(=O)CCNc4ccc(N5CCOCC5)cc4)c3)cc2-c2ccncc2)ccc1Cl,33.4 µM,> 100 µM,20.6 µM,> 100 µM,22.3 µM,8.01 µM,> 100 µM,11.5 µM,9.82 µM,2.84 µM,2.31 µM,3.71 µM,> 100 µM,2.68 µM,3.34 µM,3.48 µM,2.37 µM,4.09 µM,2.47 µM,2.52 µM
COc1ccc(C)cc1NC(=S)C#N,> 100 µM,> 100 µM,> 100 µM,> 100 µM,> 100 µM,> 100 µM,> 100 µM,> 100 µM,–,–,–,–,> 100 µM,–,–,–,–,–,–,–
C=C1CC[C@H]2C(C)=CC[C@H]3C(=C)C(=O)O[C@@H]3[C@@H]12,> 100 µM,> 100 µM,> 100 µM,> 100 µM,–,> 100 µM,> 100 µM,> 100 µM,> 100 µM,–,–,–,> 100 µM,–,–,–,–,–,–,–
CC(C)OP(=O)(O)c1ncc(-c2ccc(C(F)(F)F)cc2)c(NC2CCCCCC2)n1,> 100 µM,> 100 µM,> 100 µM,> 100 µM,> 100 µM,–,> 100 µM,> 100 µM,> 100 µM,> 100 µM,> 100 µM,38.2 µM,> 100 µM,> 100 µM,> 100 µM,81.2 µM,–,> 100 µM,> 100 µM,38.5 µM
CCOC(=O)c1c(NC(=O)c2ccc(Cl)cc2)sc2c(CN(C)C)c(O)ccc12,7.13 µM,40.8 µM,47.6 µM,24.8 µM,27.1 µM,6.07 µM,36.1 µM,> 100 µM,> 100 µM,2.48 µM,6.96 µM,–,–,14.6 µM,5.47 µM,5.58 µM,1.78 µM,8.57 µM,7.57 µM,21 µM
COc1ccc(-c2c(N)noc2-c2cc(OC)c3c(c2)OCCO3)cc1,0.823 µM,6.37 µM,–,> 100 µM,> 54.8 µM,> 40 µM,0.0226 µM,> 100 µM,–,< 0.01 µM,< 0.01 µM,0.0102 µM,0.0434 µM,< 0.014 µM,0.0277 µM,< 0.0123 µM,0.12 µM,< 0.01 µM,< 0.01 µM,–
O=NNc1ccc(S(=O)(=O)c2ccc3ccccc3c2)cn1,> 100 µM,> 100 µM,> 100 µM,> 100 µM,> 100 µM,–,> 100 µM,> 100 µM,> 100 µM,–,–,–,> 100 µM,–,–,–,–,–,–,–
O=C1Nc2ccc3c(c2/C1=C\c1cc2c(cc1Br)OCO2)OCO3,–,1.72 µM,7.42 µM,7.04 µM,2.07 µM,4.37 µM,4.97 µM,2.87 µM,8.17 µM,–,0.376 µM,0.271 µM,2.35 µM,0.857 µM,0.552 µM,0.393 µM,1.16 µM,0.364 µM,0.351 µM,0.369 µM
